*1 amine or outer side, *2 acyl side, *3 side chain or, on linkers, in order; H or OH if unused. Where a SMILES comes first, the peptide text is derived from it. Bridges are numbered along the chain shown (N, C = ends). [ ]: non-standard residue; d: D form. The star is where a group is joined. hPhe(3-Cl-4-CF3) = N[C@@H](CCc1ccc(C(F)(F)F)c(Cl)c1)C(=O)O; NPrPhe(4-CF3) = CCCN[C@@H](Cc1ccc(C(F)(F)F)cc1)C(=O)O; X10 = CCCN([C@@H](Cc1ccc(F)cc1)C(=O)[*:2])[*:1]; NMeGly(cPent) = CN[C@H](C(=O)O)C1CCCC1; NMeD = CN[C@@H](CC(=O)O)C(=O)O; NMeL = CN[C@@H](CC(C)C)C(=O)O; Morpholide = C1CN(*)CCO1; NMeA = CN[C@@H](C)C(=O)O; Ac5c = NC1(C(=O)O)CCCC1; Aze = O=C(O)[C@@H]1CCN1; NPrGly = CCCNCC(=O)O; Sar = CNCC(=O)O
Key:
[1] = target: GDP-bound NRAS wild-type protein (Homo sapiens, UniProt P01111); test: Binding to NRAS by surface plasmon resonance (SPR), Single Cycle Kinetics; conditions: SPR
GDP-bound NRAS wild-type protein, sequence (P01111 whole entry): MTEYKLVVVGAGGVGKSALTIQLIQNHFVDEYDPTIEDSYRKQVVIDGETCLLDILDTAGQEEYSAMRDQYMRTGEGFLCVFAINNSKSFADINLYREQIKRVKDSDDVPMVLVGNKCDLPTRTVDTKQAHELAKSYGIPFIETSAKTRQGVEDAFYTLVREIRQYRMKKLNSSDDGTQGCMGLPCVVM

[2] = target: GDP-bound HRAS wild-type protein (Homo sapiens, UniProt P01112); test: Binding to HRAS by surface plasmon resonance (SPR), Single Cycle Kinetics; conditions: SPR
GDP-bound HRAS wild-type protein, sequence (P01112 whole entry): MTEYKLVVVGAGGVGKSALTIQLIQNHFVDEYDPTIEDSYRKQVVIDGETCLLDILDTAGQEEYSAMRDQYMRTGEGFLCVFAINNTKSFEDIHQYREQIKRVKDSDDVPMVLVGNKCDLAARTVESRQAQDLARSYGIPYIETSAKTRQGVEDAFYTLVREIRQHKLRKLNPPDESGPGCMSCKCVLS

[3] = KD ratio, GDP-bound NRAS wild-type vs GDP-bound KRAS wild-type
[4] = KD ratio, GDP-bound HRAS wild-type vs GDP-bound KRAS wild-type

CCCN1CC(=O)NC2(CCCC2)C(=O)N(C)[C@@H](C2CCCC2)C(=O)N(C)[C@H](C(=O)N2CCOCC2)CC(=O)N(C)[C@@H](CC(C)C)C(=O)N[C@@H]([C@@H](C)CC)C(=O)N(C)[C@@H](C)C(=O)N2CC[C@H]2C(=O)N(CCC)[C@@H](Cc2ccc(C(F)(F)F)cc2)C(=O)N(C)CC(=O)N[C@@H](CCc2ccc(C(F)(F)F)c(Cl)c2)C1=O [PP0288] ([NMeL]I[NMeA][Aze][NPrPhe(4-CF3)][Sar][hPhe(3-Cl-4-CF3)][NPrGly][Ac5c][NMeGly(cPent)][NMeD]-Morpholide; lactam N-11)
NRAS/KRAS (ratio of KD for GDP-bound NRAS wild-type to KD for KRAS) [1]: C (A compound having a KD ratio of 0.1 or more and less than 3 is denoted as C)
HRAS/KRAS (ratio of KD for GDP-bound HRAS wild-type to KD for KRAS) [2]: B (a compound having 3 or more and less than 10 is denoted as B)

CCCN1C(=O)[C@@H]2CCN2C(=O)[C@H](C)N(C)C(=O)[C@H]([C@@H](C)CC)NC(=O)[C@H](CC(C)C)N(C)C(=O)C[C@@H](C(=O)N2CCOCC2)N(C)C(=O)[C@H](C2CCCC2)N(C)C(=O)C2(CCCC2)NC(=O)[C@@H]2CCCN2C(=O)[C@H](CCc2ccc(C(F)(F)F)c(Cl)c2)NC(=O)CN(C)C(=O)[C@@H]1Cc1ccc(F)cc1 [PP0219] ([NMeL]I[NMeA][Aze][X10][Sar][hPhe(3-Cl-4-CF3)]P[Ac5c][NMeGly(cPent)][NMeD]-Morpholide; lactam N-11)
NRAS/KRAS (ratio of KD for GDP-bound NRAS wild-type to KD for KRAS) [1]: C (A compound having a KD ratio of 0.1 or more and less than 3 is denoted as C)
HRAS/KRAS (ratio of KD for GDP-bound HRAS wild-type to KD for KRAS) [2]: B (a compound having 3 or more and less than 10 is denoted as B)

CC[C@H](C)[C@@H]1NC(=O)[C@H](Cc2ccccc2)N(C)C(=O)C[C@@H](C(=O)N2CCOCC2)N(C)C(=O)[C@H](C2CCCC2)N(C)C(=O)C2(CCCC2)NC(=O)[C@@H]2CCCN2C(=O)[C@H](CCc2ccc(C(F)(F)F)c(Cl)c2)NC(=O)CN(C)C(=O)[C@H](Cc2ccc(F)cc2)N2CCCCC[C@@H](C2=O)N(C)C(=O)CN(C)C1=O [PP0961]
NRAS/KRAS (ratio of KD value with respect to NRAS to KD value with respect to KRAS) [1, 3]: B (a compound having 3 or more and less than 10 is denoted as B)
HRAS/KRAS (ratio of KD value with respect to HRAS to KD value with respect to KRAS) [2, 4]: B (a compound having 3 or more and less than 10 is denoted as B)

CC[C@H](C)[C@@H]1NC(=O)[C@H](CC)N(C)C(=O)C[C@@H](C(=O)N(C)C)N(C)C(=O)[C@H](C2CCCC2)N(C)C(=O)C2(CCC2)NC(=O)[C@@H]2CCCN2C(=O)[C@H](CCc2cc(C)c(Cl)c(C)c2)NC(=O)CN(C)C(=O)[C@H](Cc2ccc(C(F)(F)F)cc2)N2CC/C=C\C[C@@H](C2=O)N(C)C(=O)CN(C)C1=O [PP1822]
NRAS/KRAS (ratio of KD value for NRAS to KD value for KRAS) [1, 3]: A (a compound having 10 or more and less than 20 is denoted as A)
HRAS/KRAS (ratio of KD value for HRAS to KD value for KRAS) [2, 4]: B (a compound having 3 or more and less than 10 is denoted as B)

CCO[C@@H]1C[C@H]2C(=O)NC3(CCC3)C(=O)N(C)[C@@H](C3CCCC3)C(=O)N(C)[C@H](C(=O)N(C)C)CC(=O)N(C)[C@@H](CC)C(=O)N[C@@H]([C@@H](C)CC)C(=O)N3CC[C@@H]3C(=O)N(C)[C@H]3C/C=C\CCN(C3=O)[C@@H](Cc3ccc(C(F)(F)F)cc3)C(=O)N(C)CC(=O)N[C@@H](CCc3cc(F)c(C(F)(F)F)c(F)c3)C(=O)N2C1 [PP1064]
NRAS/KRAS (ratio of KD value with respect to NRAS to KD value with respect to KRAS) [1, 3]: A (a compound having 10 or more and less than 20 is denoted as A)
HRAS/KRAS (ratio of KD value with respect to HRAS to KD value with respect to KRAS) [2, 4]: A (a compound having 10 or more and less than 20 is denoted as A)

CCO[C@@H]1C[C@H]2C(=O)NC3(CCC3)C(=O)N(C)[C@@H](C3CCCC3)C(=O)N(C)[C@H](C(=O)N3CCOCC3)CC(=O)N(C)[C@@H](CC)C(=O)N[C@@H]([C@@H](C)CC)C(=O)N(C)CC(=O)N(C)[C@H]3CCCCCN(C3=O)[C@@H](Cc3ccc(C(F)(F)F)cc3)C(=O)N(C)CC(=O)N[C@@H](CCc3cc(F)c(C(F)(F)F)c(F)c3)C(=O)N2C1 [PP0678]
NRAS/KRAS (ratio of KD value with respect to GDP-bound NRAS wild-type protein to KD value with respect to KRAS) [1]: B (a compound having 3 or more and less than 10 is denoted as B)
HRAS/KRAS (ratio of KD value with respect to GDP-bound HRAS wild-type protein to KD value with respect to KRAS) [2]: B (a compound having 3 or more and less than 10 is denoted as B)

CCCO[C@H]1CCN2C(=O)[C@H](CCc3cc(F)c(C(F)(F)F)c(F)c3)NC(=O)CN(C)C(=O)[C@H](Cc3ccc(C(F)(F)F)cc3)N3CCCCC[C@@H](C3=O)N(C)C(=O)CN(C)C(=O)[C@H]([C@@H](C)CC)NC(=O)[C@H](CC(C)C)N(C)C(=O)C[C@@H](C(=O)N3CCOCC3)N(C)C(=O)[C@H](C3CCCC3)N(C)C(=O)C3(CCC3)NC(=O)[C@H]12 [PP1069]
NRAS/KRAS (ratio of KD value with respect to NRAS to KD value with respect to KRAS) [1, 3]: A (a compound having 10 or more and less than 20 is denoted as A)
HRAS/KRAS (ratio of KD value with respect to HRAS to KD value with respect to KRAS) [2, 4]: B (a compound having 3 or more and less than 10 is denoted as B)

CCC(CC)[C@H]1C(=O)N(C)[C@H](C(=O)N(C)C)CC(=O)N(C)[C@@H](C(C)C)C(=O)N[C@@H]([C@@H](C)CC)C(=O)N(C)CC(=O)N(C)[C@H]2C/C=C\CCN(C2=O)[C@@H](CC2CCC(F)(F)CC2)C(=O)N(C)CC(=O)N[C@@H](CCc2cc(F)c(C(F)(F)F)c(F)c2)C(=O)N2C[C@@H](C)C[C@H]2C(=O)NC2(CC(C)(C)C2)C(=O)N1C [PP2496]
NRAS/KRAS (ratio of KD value with respect to NRAS to KD value with respect to KRAS) ([1]; GDP-bound NRAS wild-type vs GDP-bound KRAS wild-type): A (a compound having 10 or more and less than 20 is denoted as A)
HRAS/KRAS (ratio of KD value with respect to HRAS to KD value with respect to KRAS) ([2]; GDP-bound HRAS wild-type vs GDP-bound KRAS wild-type): A (a compound having 10 or more and less than 20 is denoted as A)

CCC[C@H]1C(=O)N[C@@H]([C@@H](C)CC)C(=O)N(C)CC(=O)N(C)[C@H]2C/C=C\CCN(C2=O)[C@@H](Cc2ccc(C(F)(F)F)cc2)C(=O)N(C)CC(=O)N[C@@H](CCc2ccc(C(F)(F)F)c(Cl)c2)C(=O)N2C[C@H](OCC)C[C@H]2C(=O)NC2(CC(C)(C)C2)C(=O)N(C)[C@@H]([C@@H](C)CC)C(=O)N(C)[C@H](C(=O)N(C)C)CC(=O)N1C [PP2973]
NRAS/KRAS (ratio of KD value with respect to GDP-bound NRAS wild-type protein to KD value with respect to KRAS) ([1]; GDP-bound wild-type proteins): A (a compound having 10 or more and less than 20 is denoted as A)
HRAS/KRAS (ratio of KD value with respect to GDP-bound HRAS wild-type protein to KD value with respect to KRAS) ([2]; GDP-bound wild-type proteins): A (a compound having 10 or more and less than 20 is denoted as A)

CCCN1CC(=O)NC2(CCCC2)C(=O)N(C)[C@@H](C2CCCC2)C(=O)N(C)[C@H](C(=O)N2CCOCC2)CC(=O)N(C)[C@@H](CC(C)C)C(=O)N[C@@H]([C@@H](C)CC)C(=O)N2CC[C@H]2C(=O)N(C)CC(=O)N(CCC)[C@@H](Cc2ccc(C(F)(F)F)cc2)C(=O)N(C)CC(=O)N[C@@H](CCc2ccc(C(F)(F)F)c(Cl)c2)C1=O [PP0315] ([NMeL]I[Aze][Sar][NPrPhe(4-CF3)][Sar][hPhe(3-Cl-4-CF3)][NPrGly][Ac5c][NMeGly(cPent)][NMeD]-Morpholide; lactam N-11)
NRAS/KRAS (ratio of KD for GDP-bound NRAS wild-type to KD for KRAS) [1]: B (a compound having 3 or more and less than 10 is denoted as B)
HRAS/KRAS (ratio of KD for GDP-bound HRAS wild-type to KD for KRAS) [2]: B (a compound having 3 or more and less than 10 is denoted as B)

CCO[C@@H]1C[C@H]2C(=O)NC3(CCCC3)C(=O)N(C)[C@@H](C3CCCC3)C(=O)N(C)[C@H](C(=O)N(C)C)CC(=O)N(C)[C@@H](CC(C)C)C(=O)N[C@@H]([C@@H](C)CC)C(=O)N(C)CC(=O)N(C)[C@H]3C[C@@H](C)CCN(C3=O)[C@@H](Cc3ccc(C(F)(F)F)cc3)C(=O)N(C)CC(=O)N[C@@H](CCc3cc(F)c(C(F)(F)F)c(F)c3)C(=O)N2C1 [PP1017]
NRAS/KRAS (ratio of KD value with respect to NRAS to KD value with respect to KRAS) [1, 3]: C (A compound having a KD ratio of 0.1 or more and less than 3 is denoted as C)
HRAS/KRAS (ratio of KD value with respect to HRAS to KD value with respect to KRAS) [2, 4]: B (a compound having 3 or more and less than 10 is denoted as B)
